In US12421225B2, “Heteroaromatic amide derivative and medicament containing the same” (KAKEN PHARMACEUTICAL CO., LTD., priority 2018, dated 2025):

Columns and labels:
human Nav1.7 = human Nav1.7 (Homo sapiens (Human), UniProt Q15858); experiment: Human Nav1.7 inhibitory activity evaluation (automated patch clamp QPatch16X, HEK293A cells stably expressing human Nav1.7 and human Navβ1); assay type: cell-based
How it was run: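 QPatch16X whole-cell recordings at room temperature from HEK293A cells stably expressing human Nav1.7 with Navβ1, CsF-based internal solution, pH 7.4 external, 0.1% DMSO. From −100 mV holding, protocol included a 15 s hold at a potential inactivating ~30-40% of channels; IC50 from inward current at the second −10 mV pulse.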

human Nav1.5 = human Nav1.5 (Homo sapiens (Human), UniProt Q14524); experiment: Human Nav1.5 inhibitory activity evaluation (automated patch clamp QPatch16X, HEK293 cells stably expressing human Nav1.5); assay type: cell-based
human Nav1.5, sequence (Q14524 whole entry): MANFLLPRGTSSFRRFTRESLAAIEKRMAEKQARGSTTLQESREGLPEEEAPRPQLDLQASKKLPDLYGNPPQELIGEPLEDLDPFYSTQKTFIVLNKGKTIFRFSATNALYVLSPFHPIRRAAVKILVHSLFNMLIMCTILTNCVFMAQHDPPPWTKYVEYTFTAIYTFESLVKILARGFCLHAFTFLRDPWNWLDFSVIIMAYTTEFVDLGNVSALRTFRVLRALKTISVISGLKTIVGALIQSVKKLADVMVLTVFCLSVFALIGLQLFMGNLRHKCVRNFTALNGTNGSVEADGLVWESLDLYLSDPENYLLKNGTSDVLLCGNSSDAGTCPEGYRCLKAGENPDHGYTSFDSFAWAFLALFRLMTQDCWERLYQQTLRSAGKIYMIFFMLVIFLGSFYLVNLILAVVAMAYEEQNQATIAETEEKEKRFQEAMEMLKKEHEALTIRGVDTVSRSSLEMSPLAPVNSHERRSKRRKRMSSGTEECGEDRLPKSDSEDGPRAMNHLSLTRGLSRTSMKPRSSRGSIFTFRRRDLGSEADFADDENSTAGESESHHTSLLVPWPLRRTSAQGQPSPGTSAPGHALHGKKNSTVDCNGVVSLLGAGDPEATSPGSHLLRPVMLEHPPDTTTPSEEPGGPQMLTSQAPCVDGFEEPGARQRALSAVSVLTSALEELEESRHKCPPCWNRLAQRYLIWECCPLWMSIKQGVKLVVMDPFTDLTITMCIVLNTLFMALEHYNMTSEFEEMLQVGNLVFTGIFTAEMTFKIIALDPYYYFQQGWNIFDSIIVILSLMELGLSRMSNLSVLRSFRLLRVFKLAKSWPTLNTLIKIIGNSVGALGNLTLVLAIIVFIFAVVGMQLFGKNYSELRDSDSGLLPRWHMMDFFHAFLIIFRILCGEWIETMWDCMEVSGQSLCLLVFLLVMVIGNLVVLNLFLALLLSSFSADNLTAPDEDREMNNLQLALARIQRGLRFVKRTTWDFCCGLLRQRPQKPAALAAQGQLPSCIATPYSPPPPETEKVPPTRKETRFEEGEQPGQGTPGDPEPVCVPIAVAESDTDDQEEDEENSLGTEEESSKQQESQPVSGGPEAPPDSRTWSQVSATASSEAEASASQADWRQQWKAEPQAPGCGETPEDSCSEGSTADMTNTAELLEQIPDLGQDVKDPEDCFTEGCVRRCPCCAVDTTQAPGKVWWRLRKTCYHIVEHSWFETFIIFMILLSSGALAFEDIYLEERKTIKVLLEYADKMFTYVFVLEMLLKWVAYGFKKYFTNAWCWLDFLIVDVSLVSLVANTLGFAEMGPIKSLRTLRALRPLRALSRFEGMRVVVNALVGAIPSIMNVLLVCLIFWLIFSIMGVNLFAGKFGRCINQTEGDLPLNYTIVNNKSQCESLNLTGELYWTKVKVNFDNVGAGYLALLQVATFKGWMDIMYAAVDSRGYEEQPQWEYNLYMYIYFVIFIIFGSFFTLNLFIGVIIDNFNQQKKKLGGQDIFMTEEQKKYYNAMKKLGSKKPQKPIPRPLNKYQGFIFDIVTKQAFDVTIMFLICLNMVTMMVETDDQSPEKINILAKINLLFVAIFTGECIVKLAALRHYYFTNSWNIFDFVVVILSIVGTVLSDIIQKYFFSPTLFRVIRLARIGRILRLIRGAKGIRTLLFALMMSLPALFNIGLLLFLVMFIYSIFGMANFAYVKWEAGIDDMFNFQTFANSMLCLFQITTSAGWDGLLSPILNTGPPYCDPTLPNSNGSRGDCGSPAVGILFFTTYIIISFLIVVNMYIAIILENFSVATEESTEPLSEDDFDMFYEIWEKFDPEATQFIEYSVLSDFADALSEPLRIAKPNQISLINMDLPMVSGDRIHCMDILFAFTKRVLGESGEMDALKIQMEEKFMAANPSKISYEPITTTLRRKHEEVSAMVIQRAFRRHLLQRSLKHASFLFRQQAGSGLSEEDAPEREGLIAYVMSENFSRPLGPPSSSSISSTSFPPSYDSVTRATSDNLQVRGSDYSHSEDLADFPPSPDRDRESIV
Experimental: Test Example 2: Human Nav1.5 Inhibitory Activity Evaluation
A cell line in which human Nav1.5 was stably expressed in HEK293 cells was used. DMEM supplemeted with 15% fetal bovine serum, 500 μg/ml geneticin, 100 units/ml penicillin, 100 μg/ml streptomycin, 20 mM HEPES was used as culture medium under the conditions of 37° C. and 5% CO2 in T175 flasks to carry out culturing. When 60-80% confluence was reached, a cell suspension of about 0.5-5.0×10^6 cells/mL was prepared. The amount of current through human Nav1.5 was recorded using a fully automatic patch clamp device QPatch16X at room temperature. As the extracellular solution, 145 mM NaCl, 4 mM KCl, 1 mM MgCl2, 2 mM CaCl2, 10 mM Glucose, and 10 mM HEPES at pH 7.4 was used. As the intracellular solution, 135 mM CsF, ⅕ mM EGTA/CsOH, 10 mM HEPES, and 10 mM NaCl at pH 7.3 was used. The test compounds were dissolved in DMSO and diluted with the extracellular solution to attend the DMSO concentration of 0.1% at the time of assay.
The current response was obtained at a sampling frequency of 25 kHz, and noise was removed with a 3 kHz low-pass filter. The holding potential was −80 mV. Correction of the leakage current was carried out by applying a step pulse of −100 mV before the test pulse. In order to investigate human Nav1.5 inhibitory effect of the test compound, test pulses imitating the action potential of cardiomyocytes were continuously given 20 times. The test pulses were given before and after the test compound addition.
The inhibitory activity of the test compound was determined based on the amount of inward current generated by the 20th depolarization pulse, and the 50% inhibitory concentration (IC50) was calculated from the concentration-response curve.

[1] = human Nav1.7, automated patch clamp
[2] = human Nav1.5, automated patch clamp
[3] = HEK293A cells stably expressing human Nav1.7 and human Navβ1, automated patch clamp QPatch16X
[4] = HEK293 cells stably expressing human Nav1.5, automated patch clamp QPatch16X

human Nav1.7, sequence (Q15858 whole entry): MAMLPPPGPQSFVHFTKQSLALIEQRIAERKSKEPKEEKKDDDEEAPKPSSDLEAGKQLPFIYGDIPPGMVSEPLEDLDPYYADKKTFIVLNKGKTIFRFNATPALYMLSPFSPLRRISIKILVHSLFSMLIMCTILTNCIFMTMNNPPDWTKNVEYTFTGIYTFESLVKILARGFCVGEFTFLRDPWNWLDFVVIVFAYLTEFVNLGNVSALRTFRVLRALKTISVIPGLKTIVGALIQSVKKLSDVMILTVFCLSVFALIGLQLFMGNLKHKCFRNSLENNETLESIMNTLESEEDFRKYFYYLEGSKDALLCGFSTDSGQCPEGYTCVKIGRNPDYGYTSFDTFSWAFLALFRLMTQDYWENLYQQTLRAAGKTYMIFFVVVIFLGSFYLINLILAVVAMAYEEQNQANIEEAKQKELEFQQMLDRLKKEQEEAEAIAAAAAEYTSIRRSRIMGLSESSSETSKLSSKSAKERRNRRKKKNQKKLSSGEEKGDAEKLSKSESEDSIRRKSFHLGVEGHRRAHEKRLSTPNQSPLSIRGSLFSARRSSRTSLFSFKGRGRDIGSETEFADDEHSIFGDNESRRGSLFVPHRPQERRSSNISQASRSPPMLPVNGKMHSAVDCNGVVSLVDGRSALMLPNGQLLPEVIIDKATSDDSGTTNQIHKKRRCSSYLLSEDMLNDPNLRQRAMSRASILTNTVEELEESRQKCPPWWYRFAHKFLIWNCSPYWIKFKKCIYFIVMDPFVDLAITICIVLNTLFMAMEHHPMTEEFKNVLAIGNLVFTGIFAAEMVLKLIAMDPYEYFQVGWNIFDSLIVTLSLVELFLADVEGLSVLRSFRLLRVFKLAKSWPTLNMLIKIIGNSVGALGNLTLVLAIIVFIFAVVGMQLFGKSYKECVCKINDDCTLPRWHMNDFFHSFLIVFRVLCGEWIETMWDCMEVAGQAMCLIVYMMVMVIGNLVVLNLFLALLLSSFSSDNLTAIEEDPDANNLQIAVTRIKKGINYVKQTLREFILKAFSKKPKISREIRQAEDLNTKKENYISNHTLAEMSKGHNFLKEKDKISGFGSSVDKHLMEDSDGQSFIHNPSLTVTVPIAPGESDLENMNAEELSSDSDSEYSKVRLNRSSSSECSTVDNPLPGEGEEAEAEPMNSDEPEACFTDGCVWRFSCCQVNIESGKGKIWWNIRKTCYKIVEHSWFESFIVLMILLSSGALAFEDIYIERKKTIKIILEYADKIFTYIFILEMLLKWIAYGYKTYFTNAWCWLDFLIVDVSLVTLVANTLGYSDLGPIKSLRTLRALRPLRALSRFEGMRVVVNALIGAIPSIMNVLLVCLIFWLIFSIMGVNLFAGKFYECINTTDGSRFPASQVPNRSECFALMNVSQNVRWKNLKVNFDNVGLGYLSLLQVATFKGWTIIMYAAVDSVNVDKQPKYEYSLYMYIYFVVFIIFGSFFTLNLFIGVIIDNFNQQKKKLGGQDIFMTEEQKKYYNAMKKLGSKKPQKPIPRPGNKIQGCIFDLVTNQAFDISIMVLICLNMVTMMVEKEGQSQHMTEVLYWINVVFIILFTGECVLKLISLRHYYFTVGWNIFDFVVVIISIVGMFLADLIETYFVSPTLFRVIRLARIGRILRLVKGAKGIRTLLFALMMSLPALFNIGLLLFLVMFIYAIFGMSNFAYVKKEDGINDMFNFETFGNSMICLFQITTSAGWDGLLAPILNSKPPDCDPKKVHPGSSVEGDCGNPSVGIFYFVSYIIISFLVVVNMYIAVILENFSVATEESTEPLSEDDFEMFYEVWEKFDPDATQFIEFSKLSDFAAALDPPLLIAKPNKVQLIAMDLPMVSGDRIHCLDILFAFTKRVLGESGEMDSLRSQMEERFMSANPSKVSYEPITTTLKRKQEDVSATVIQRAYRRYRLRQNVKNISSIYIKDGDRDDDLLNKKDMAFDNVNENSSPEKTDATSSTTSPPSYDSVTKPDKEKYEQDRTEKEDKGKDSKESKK
human Nav1.7, sequence (Q07699 19-218 partner): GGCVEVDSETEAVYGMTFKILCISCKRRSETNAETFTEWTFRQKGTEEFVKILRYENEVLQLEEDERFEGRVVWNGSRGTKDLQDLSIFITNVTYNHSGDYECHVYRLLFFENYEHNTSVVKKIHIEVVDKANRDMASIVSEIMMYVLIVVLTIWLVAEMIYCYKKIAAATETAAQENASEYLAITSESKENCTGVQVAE

SMILES	IC50 (human Nav1.7; [1])	IC50 (human Nav1.5; [2])	IC50 (human Nav1.7; [3])	IC50 (human Nav1.5; [4])
O=C(N[C@H]1COc2ccc(C(F)(F)F)cc2C1)c1nc2n(c1-c1ccccn1)CCCC2 [Example 305]	< 1 µM	1 to 3 µM	–	–
O=C(c1cn2c(n1)CCC(C(F)(F)F)C2)N(Cc1ccccc1)C1COc2ccc(Br)cc2C1 (centres unmarked) [Example 298]	< 1 µM	1 to 3 µM	–	–
O=C(N[C@H]1COc2ccc(COCC(F)(F)F)cc2C1)c1cc2n(n1)CCC(C(F)F)O2 (single isomer, unassigned) [163 (isomer A)]	< 1 µM	1 to 3 µM	–	–
N#Cc1ccc2c(c1)C[C@@H](NC(=O)c1cc3n(n1)CC(CCCOCC(F)(F)F)O3)CO2 (single isomer, unassigned) [246 (isomer A)]	< 1 µM	1 to 3 µM	–	–
CC1(COCC2CCn3nc(C(=O)N[C@H]4COc5ccc(C#N)cc5C4)cc3O2)CC1 (some centres unmarked) [Example 112]	–	–	< 1 µM	≥ 3 µM
O=C(N[C@H]1COc2ccc(CC(F)F)cc2C1)c1cc2n(n1)CCC(COCC1CC1)O2 (some centres unmarked) [Example 108]	–	–	< 1 µM	1 to 3 µM
Cn1ccc(-c2c(C(=O)N[C@H]3COc4ccc(C(F)(F)F)cc4C3)nc3n2CCOC3)n1 [Example 345]	< 1 µM	1 to 3 µM	–	–
CCOCC1CCn2nc(C(=O)N[C@H]3COc4ccc(-c5ccc(C#N)nc5)cc4C3)cc2O1 (some centres unmarked) [Example 125]	–	–	< 10 µM	≥ 3 µM
Cn1ccc(-c2ccc3c(c2)C[C@@H](NC(=O)c2cc4n(n2)CC(CCOCC(F)(F)F)O4)CO3)n1 (some centres unmarked) [Example 205]	< 10 µM	≥ 3 µM	–	–
O=C(N[C@H]1COc2ccc(Cl)cc2C1)c1cc2n(n1)CCN(CCC(F)(F)F)C2 [Example 261]	< 1 µM	< 1 µM	–	–
O=C(N[C@H]1COc2ccc(Cl)cc2C1)c1cn2c(n1)CCC(OCC(F)(F)F)C2 (single isomer, unassigned) [39 (isomer A)]	–	–	< 10 µM	1 to 3 µM
O=C(N[C@H]1COc2ccc(Cl)cc2C1)c1cc2n(n1)CC(CCN1CC(F)(F)C1)O2 (single isomer, unassigned) [234 (isomer A)]	< 1 µM	≥ 3 µM	–	–
O=C(N[C@H]1COc2ccc(CCOC(F)(F)F)cc2C1)c1cc2n(n1)CC(C(F)(F)F)O2 (some centres unmarked) [Example 447]	< 1 µM	≥ 3 µM	–	–
Cn1cc(-c2ccc3c(c2)C[C@@H](NC(=O)c2cc4n(n2)CC(CCOC(F)F)O4)CO3)cn1 (some centres unmarked) [Example 220]	< 10 µM	1 to 3 µM	–	–
O=C(N[C@H]1COc2ccc(Cl)cc2C1)c1cc2n(n1)CCN(C1(C(F)(F)F)CC1)C2 [Example 283]	< 1 µM	< 1 µM	–	–
O=C(N[C@H]1COc2ccccc2C1)c1cc2n(n1)CCN(CC(F)(F)C(F)(F)F)C2 [Example 487]	< 1 µM	1 to 3 µM	–	–
O=C(N[C@H]1COc2ccc(Cl)cc2C1)c1cn2c(n1)CCC(OCC(F)(F)F)C2 (single isomer, unassigned) [39 (isomer B)]	–	–	< 10 µM	≥ 3 µM
Cn1ccc(-c2c(C(=O)N[C@H]3COc4ccc(C(F)(F)F)cc4C3)nn3c2COCC3)n1 [Example 518]	< 1 µM	1 to 3 µM	–	–
O=C(N[C@H]1COc2ccc(C(F)(F)F)cc2C1)c1cc2n(n1)CC(CCNCC(F)(F)F)O2 (some centres unmarked) [Example 229]	< 1 µM	1 to 3 µM	–	–
O=C(N[C@H]1COc2ccc(Cl)cc2C1)c1cc2n(n1)CCC(COCc1cccc(C(F)(F)F)n1)O2 (some centres unmarked) [Example 105]	–	–	< 1 µM	< 1 µM
O=C(N[C@H]1COc2ccc(C(F)F)cc2C1)c1cn2c(n1)CCC(C(F)(F)F)C2 (single isomer, unassigned) [7 (isomer A)]	–	–	< 1 µM	1 to 3 µM
O=C(N[C@H]1COc2ccc(CCOC(F)F)cc2C1)c1cc2n(n1)CC(COCC(F)(F)F)O2 (single isomer, unassigned) [190 (isomer A)]	< 1 µM	≥ 3 µM	–	–

SMILES	IC50 (human Nav1.7; [1])	IC50 (human Nav1.5; [2])	IC50 (human Nav1.7; [3])	IC50 (human Nav1.5; [4])
C[C@H]1CCn2nc(C(=O)N[C@H]3COc4ccc(Cl)cc4C3)cc2O1 [Example 86]	–	–	< 1 µM	≥ 3 µM
COCc1ccc2c(c1)C[C@@H](NC(=O)c1cc3n(n1)CCC(c1ccccc1F)O3)CO2 (some centres unmarked) [Example 361]	< 1 µM	≥ 3 µM	–	–
N#Cc1ccc2c(c1)C[C@@H](NC(=O)c1cc3n(n1)CCC(CCOC(F)F)O3)CO2 (single isomer, unassigned) [146 (isomer B)]	< 1 µM	≥ 3 µM	–	–
O=C(N[C@H]1COc2ccc(-c3cscn3)cc2C1)c1cc2n(n1)CCC(COCC1CC1)O2 (some centres unmarked) [Example 427]	< 1 µM	1 to 3 µM	–	–
O=C(N[C@H]1COc2ccc(C(F)(F)F)cc2C1)c1cc2n(n1)CCC(OCC(F)(F)F)CO2 (single isomer, unassigned) [257 (isomer A)]	< 1 µM	≥ 3 µM	–	–
O=C(N[C@H]1COc2ccc(Br)cc2C1)c1cc2n(n1)CCC(c1ccccc1F)O2 (some centres unmarked) [Example 71]	–	–	< 1 µM	< 1 µM
O=C(N[C@H]1COc2ccc(CC(F)F)cc2C1)c1cc2n(n1)CCC(COCC(F)(F)F)O2 (some centres unmarked) [Example 126]	–	–	< 1 µM	1 to 3 µM
O=C(N[C@H]1COc2ccccc2C1)c1cc2n(n1)CCN(CC(C1CC1)C1CC1)C2 [Example 490]	< 10 µM	≥ 3 µM	–	–
N#Cc1ccc2c(c1)C[C@@H](NC(=O)c1cc3n(n1)CC(CCCOCC(F)(F)F)O3)CO2 (some centres unmarked) [Example 245]	< 1 µM	1 to 3 µM	–	–
O=C(N[C@H]1COc2ccc(COCC(F)(F)F)cc2C1)c1cc2n(n1)CC(COC(F)(F)F)O2 (some centres unmarked) [Example 195]	< 1 µM	≥ 3 µM	–	–
O=C(N[C@H]1COc2ccc(C(F)(F)F)cc2C1)c1cc2n(n1)CCN(CCC(F)(F)F)C2 [Example 506]	< 1 µM	1 to 3 µM	–	–
O=C(N[C@H]1COc2ccc(COCC(F)(F)F)cc2C1)c1cc2n(n1)CCC(C1CCOCC1)O2 (single isomer, unassigned) [615 (isomer B)]	< 1 µM	≥ 3 µM	–	–
O=C(N[C@H]1COc2ccc(Cl)cc2C1)c1nc2n(c1-c1ccccn1)CCOC2 [Example 66]	–	–	< 10 µM	< 1 µM
N#Cc1ccc2c(c1)C[C@@H](NC(=O)c1cc3n(n1)CCC(CCOC(F)F)O3)CO2 (some centres unmarked) [Example 145]	< 1 µM	≥ 3 µM	–	–
N#Cc1ccc2c(c1)C[C@@H](NC(=O)c1cc3n(n1)CCC(CSC(F)(F)F)O3)CO2 (some centres unmarked) [Example 155]	< 10 µM	≥ 3 µM	–	–
O=C(N[C@H]1COc2ccc(CC(F)F)cc2C1)c1cc2n(n1)CC(COC(F)(F)F)O2 (some centres unmarked) [Example 197]	< 1 µM	≥ 3 µM	–	–
O=C(NC1COc2cccc(Br)c2C1)c1cn2c(n1)CCC(C(F)(F)F)C2 (single isomer, unassigned) [9 (isomer B)]	–	–	< 1 µM	≥ 3 µM
COc1ncccc1C1CCn2nc(C(=O)N[C@H]3COc4ccc(C#N)cc4C3)cc2O1 (some centres unmarked) [Example 75]	–	–	< 1 µM	≥ 3 µM
CN1Cc2nc(C(=O)NC3COc4ccccc4C3)cn2CC1c1ccccc1 (centres unmarked) [Example 57]	–	–	< 1 µM	< 1 µM
CCCOCC1CCn2nc(C(=O)N[C@H]3COc4ccc(C#N)cc4C3)cc2O1 (single isomer, unassigned) [101 (isomer B)]	–	–	< 10 µM	≥ 3 µM
O=C(N[C@H]1COc2ccc(COCC(F)(F)F)cc2C1)c1cc2n(n1)CC(CCNCC(F)(F)F)O2 (single isomer, unassigned) [232 (isomer A)]	< 1 µM	1 to 3 µM	–	–
